We go through 16 molecules from patent US5118811A, “Amino acid derivatives possessing prolyl endopeptidase-inhibitory activities” (Japan Tobacco Inc., priority 1989, dated 1992).

The target in test [1] is T1, trypsin (Bos taurus, UniProt P00760).
T1 construct: purchased Sigma; host or cells: bovine pancreas
T1 sequence (P00760 24-246): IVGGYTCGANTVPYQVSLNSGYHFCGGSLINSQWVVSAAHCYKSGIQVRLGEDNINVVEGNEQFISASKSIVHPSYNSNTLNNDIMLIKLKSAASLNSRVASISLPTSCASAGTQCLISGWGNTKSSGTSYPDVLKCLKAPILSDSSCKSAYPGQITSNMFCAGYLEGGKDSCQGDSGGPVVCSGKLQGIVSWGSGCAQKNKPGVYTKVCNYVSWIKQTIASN
In words: Trypsin-Inhibitory Activity. It counts as biochemical, bovine. The following applies: read-out: Inhibition rate, trypsin; for inhibition at 10 µM: 1 × 10^-5 M; for inhibition at 1 µM: 1 × 10^-6 M. The protocol:
In the present invention, a 50 mM Tris-HCl buffer (pH 8.0) was employed as a buffer for measurement.
To a mixture of the above-mentioned buffer (850 μl), a solution of the compounds of the present invention in the same buffer (50 μl) and a 0.02 μM solution of trypsin (derived from bovine pancreas, Sigma) in the same buffer (50 μl) was added a 200 μM solution of 7-(prolyl-phenylaranyl-arginyl)-4-methylcoumarinamide (Peptide Institute, Inc.) in the same buffer (50 μl), and the mixture was incubated at 30° C. for 1 hour. The reaction mixture was immersed in ice (0° C.) to terminate the reaction, and the fluorescence (b1) was determined 1 hour later (excitation at 370 nm and emission at 440 nm). Concurrently, there were conducted the experiment wherein, in the system above, the trypsin solution was substituted for a buffer alone, and the experiment wherein the solution of the compounds of the present invention was also substituted for a buffer above. Each fluorescence (b2 and b3) was also determined respectively.
(§1) Using the fluorescence x1, x2 and x3 measured in the above-mentioned manner, the inhibitory rate against various proteases was calculated by the following formula where x stands for b, c, d, e or f: [formula]

In test [2] the target is T2, cathepsin B (Bos taurus, UniProt P07688).
T2 construct: purchased Sigma; host or cells: bovine spleen
Kind of test: Cathepsin B-Inhibitory Activity. It counts as biochemical, bovine. To be noted: read-out: Inhibition rate, cathepsin B; for inhibition at 10 µM: 1 × 10^-5 M; for inhibition at 1 µM: 1 × 10^-6 M. The protocol: Similarly, by following the procedure mentioned above, but employing a 100 mM sodium phosphate buffer (pH 6.0; containing 1.33 mM EDTA Na2) as a buffer for measurement, a 0.02 μM solution of cathepsin B (derived from bovine spleen, Sigma) in the same buffer as an enzyme solution and a 200 μM solution of 7-(N-benzyloxycarbonyl-phenylaranyl-arginyl)-4-methylcoumarinamide (Peptide Institute, Inc.) in the same buffer as a substrate solution. Each fluorescence (f1, f2 and f3) was also determined, respectively.
as §1

Test [3] has as its target T3, chymotrypsin (Bos taurus, UniProt P00766).
T3 construct: purchased Sigma; host or cells: bovine pancreas
Kind of test: Chymotrypsin-Inhibitory Activity. Type of test: biochemical, bovine. To be noted: read-out: Inhibition rate, chymotrypsin; for inhibition at 10 µM: 1 × 10^-5 M; for inhibition at 1 µM: 1 × 10^-6 M. As to the method:
Similarly, by following the procedure mentioned above, but employing a 50 mM Tris-HCl buffer (pH 8.0) as a buffer for measurement, a 0.2 μM solution of chymotrypsin (derived from bovine pancrease, Sigma) in the same buffer as an enzyme solution and a 200 μM solution of 7-(N-succinyl-leucyl-leucyl-valyl-tyrosyl)-4-methylcoumarinamide (Peptide Institute, Inc.) in the same buffer as a substrate solution. Each fluorescence (c1, c2 and c3) was also determined, respectively.
as §1

The target of test [4] is T4, elastase (Sus scrofa, UniProt P00772).
T4 construct: purchased Sigma; host or cells: swine pancreas
T4 sequence (P00772 27-266): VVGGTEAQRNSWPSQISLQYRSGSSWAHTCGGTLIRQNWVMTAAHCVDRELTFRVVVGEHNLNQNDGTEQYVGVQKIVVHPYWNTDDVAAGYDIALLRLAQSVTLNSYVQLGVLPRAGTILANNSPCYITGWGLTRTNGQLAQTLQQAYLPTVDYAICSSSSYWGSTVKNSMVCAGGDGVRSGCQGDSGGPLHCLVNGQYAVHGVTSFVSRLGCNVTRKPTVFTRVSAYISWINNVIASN
In words: Elastase-Inhibitory Activity. Type of test: biochemical, swine. The following applies: read-out: Inhibition rate, elastase; for inhibition at 10 µM: 1 × 10^-5 M; for inhibition at 1 µM: 1 × 10^-6 M. As to the method: Similarly, by following the procedure mentioned above, but employing a 1 mM Tris-HCl buffer (pH 8.5) as a buffer for measurement, a 0.2 μM solution of elastase (derived from swine pancreas, Sigma) in the same buffer as an enzyme solution and a 200 μM solution of 7-(N-succinyl-aranyl-prolyl-aranyl)-4-methylcoumarinamide (Peptide Institute, Inc.) in the same buffer as a substrate solution. Each fluorescence (e1, e2 and e3) was also determined, respectively.
as §1

Test [5] has as its system leucine aminopeptidase. In words: Leucine Aminopeptidase-Inhibitory Activity. Type of test: biochemical, swine. As to the method:
Similarly, by following the procedure mentioned above, but employing a 50 mM Tris-HCl buffer (pH 8.0) as a buffer for measurement, a 0.2 μM solution of leucine aminopeptidase (derived from swine kidney, Sigma) in the same buffer as an enzyme solution and a 200 μM solution of 7-(leucyl-4-methylcoumarinamide (Peptide Institute, Inc.) in the same buffer as a substrate solution. Each fluorescence (d1, d2 and d3) was also determined, respectively.
as §1

Test [6] addresses T5, prolyl endopeptidase (Rattus norvegicus, UniProt O70196).
T5 construct: prolyl endopeptidase extracted from rat brain; from tissue; host or cells: rat brain
Kind of test: Prolyl Endopeptidase-Inhibitory Activity. Type of test: biochemical. To be noted: for IC50: prolyl endopeptidase extracted from rat brain, pH 7.0, 30° C., preincubated 30 minutes, 1 hour; for inhibition at 10 µM: 1 × 10^-5 M; for inhibition at 1 µM: 1 × 10^-6 M. As to the method:
A mixture of a 0.1M potassium sodium phosphate buffer (pH 7.0) (2675 μl), a solution of the compounds of the present invention in a 0.1M potassium sodium phosphate buffer (pH 7.0) (100 μl) and a solution of prolyl endopeptidase extracted from rat brain in a 25 mM sodium phosphate buffer (100 μl) [123 unit/1, pH 6.8, containing 1 mM dithiothreitol and 0.5 mM EDTA, prepared by the method described in J. Neurochem., 35, 527 (1980)] was preincubated at 30° C. for 30 minutes. Thereto was added a 0.2 mM solution of 7-(N-succinyl-glycyl-prolyl)-4-methylcoumarinamide (Peptide Institute, INC.) in a 0.1M potassium sodium phosphate buffer (pH 7.0) (125 μl), and the mixture was incubated at 30° C. for 1 hour. The reaction mixture was immersed in ice (0° C.) to terminate the reaction, and the fluorescence (a1) was determined ten minutes later (excitation at 370 nm and emission at 440 nm). Concurrently, there were conducted the experiment wherein, in the above system, the prolyl endopeptidase solution was substituted for a 25 mM sodium phosphate buffer (pH 6.8, containing 1 mM dithiothreitol and 0.5 mM EDTA) and the experiment wherein the solution of the compounds of the present invention was also substituted for a 0.1M potassium sodium phosphate buffer (pH 7.0). Each fluorescence (a2 and a3) was also determined respectively [See Tanpakushitsu Kakusan Koso, 29, 127 (1984)]. The prolyl endopeptidase-inhibition rate was calculated by the following formula, and IC50, a concentration of a compound producing 50% inhibition, was estimated by semilogarithmic graph paper. [formula]

Where [7] appears, read: read-out: Inhibition rate, prolyl endopeptidase.

T5 sequence (O70196 whole entry): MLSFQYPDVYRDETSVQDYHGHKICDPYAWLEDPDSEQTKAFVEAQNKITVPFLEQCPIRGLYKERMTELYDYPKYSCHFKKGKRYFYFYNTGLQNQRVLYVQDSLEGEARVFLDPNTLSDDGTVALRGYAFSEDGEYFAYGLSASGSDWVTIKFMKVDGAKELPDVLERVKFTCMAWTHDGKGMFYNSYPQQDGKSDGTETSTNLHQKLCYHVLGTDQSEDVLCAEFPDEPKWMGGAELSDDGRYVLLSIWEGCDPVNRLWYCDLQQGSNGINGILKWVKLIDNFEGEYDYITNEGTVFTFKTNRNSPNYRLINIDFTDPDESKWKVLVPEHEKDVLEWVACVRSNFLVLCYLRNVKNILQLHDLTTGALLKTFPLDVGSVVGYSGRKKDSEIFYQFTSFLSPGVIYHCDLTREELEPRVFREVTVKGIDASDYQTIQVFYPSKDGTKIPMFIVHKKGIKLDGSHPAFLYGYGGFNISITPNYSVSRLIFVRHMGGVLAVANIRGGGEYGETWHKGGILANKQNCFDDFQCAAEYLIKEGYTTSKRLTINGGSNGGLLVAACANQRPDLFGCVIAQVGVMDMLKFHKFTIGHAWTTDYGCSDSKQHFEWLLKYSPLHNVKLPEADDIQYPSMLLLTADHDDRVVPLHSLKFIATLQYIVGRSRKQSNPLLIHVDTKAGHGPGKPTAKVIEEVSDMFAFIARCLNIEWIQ

As usually defined, the inhibition is how much of the control response was suppressed. In general, IC50 refers to the concentration needed to halve the response being measured. Read a low IC50 as inhibition by little substance. Turning to `O=C[C@@H]1CCCN1C(=O)[C@@H]1CCCN1C(=O)CN1CCCC1=O` [Compound 4, N-[(2-Oxo-1-pyrrolidinyl)acetyl]-L-prolyl-L-prolinal], the inhibition at 0.01 µM was found to be 0% in test [1] (1 × 10^-8 M); 0% in test [2] (1 × 10^-8 M); 0% in test [3] (1 × 10^-8 M); 0% in test [4] (1 × 10^-8 M); 100% in test [6] (1 × 10^-8 M, read-out: Inhibition rate, prolyl endopeptidase). The “Inhibition rate, leucine aminopeptidase” value in test [5] (1 × 10^-8 M) came to 0%. In test [6], this molecule showed an IC50 of 0.0004 µM.
Take `O=C[C@@H]1CSCN1C(=O)[C@@H]1CCCN1C(=O)CN1CCCC1=O` [Compound 5, N-[(2-Oxo-1-pyrrolidinyl)acetyl]-L-prolyl-L-thioprolinal]: the IC50 in test [6] was found to be 0.003 µM. In other words, the single-digit nanomolar range.
For `O=C[C@@H]1CCCN1C(=O)[C@@H]1CSCN1C(=O)CN1CCCC1=O` [Compound 6, N-[(2-Oxo-1-pyrrolidinyl)acetyl]-L-thioprolyl-L-prolinal], the IC50 in test [6] is 0.0015 µM.
Still for that read-out and setting: with `O=C[C@@H]1CSCN1C(=O)[C@@H]1CSCN1C(=O)CN1CCCC1=O` [Compound 7, N-[(2-Oxo-1-pyrrolidinyl)acetyl]-L-thioprolyl-L-thioprolinal] the figure was 0.005 µM.
As to `O=C1CCCN1CC(=O)N1CCC[C@H]1C(=O)N1CCSC1` [Compound 8, 3-{N-[(2-Oxo-1-pyrrolidinyl)acetyl]-L-prolyl}thiazolidine], the inhibition at 10 µM in test [1] worked out at 0%; in test [2] it was 0%; in test [3] it was 0%; in test [4], 0%; in test [6] (setting [7]) it was 96%. Besides, the “Inhibition rate, leucine aminopeptidase” value in test [5] (1 × 10^-5 M) is 0%. Also, in test [6], it took 0.2 µM to reach half-maximal inhibition (IC50).
Regarding `O=C1CCCN1CC(=O)N1CSC[C@H]1C(=O)N1CCSC1` [Compound 9, 3-{N-[(2-Oxo-1-pyrrolidinyl)acetyl]-L-thioprolyl}thiazolidine], the inhibition at 10 µM was 0% in test [1]; 0% in test [2]; 0% in test [3]; 0% in test [4]; 97% in test [6] (setting [7]). Moreover, in test [5] (1 × 10^-5 M), the “Inhibition rate, leucine aminopeptidase” value is recorded as 0%. The molecule also came in with an IC50 in test [6] of 0.15 µM.
The molecule `O=C[C@@H]1CCCN1C(=O)CCC(=O)N1CCCC1=O` [Compound 10] had an IC50 in test [6] of 0.07 µM.
In the case of `O=C[C@@H]1CCCN1C(=O)CCC(=O)NCCCN1CCCC1=O` [Compound 11, N-{4-Oxo-4-[3-(2-oxo-1-pyrrolidinyl)propylamino]butanoyl}-L-prolinal], the inhibition at 1 µM in test [1] was found to be 0%; in test [2], 0%; in test [3], 0%; in test [4] it was 0%; in test [6] (setting [7]) it was 97%. Besides, the “Inhibition rate, leucine aminopeptidase” value in test [5] (1 × 10^-6 M) came to 0%. Besides, in test [6], 0.025 µM corresponded to half-maximal inhibition (IC50).
As to `O=C([C@@H]1CCCN1C(=O)OCc1ccccc1)N1CCC[C@H]1C=NO` [Compound 12, (2S)-1-(N-Benzyloxycarbonyl-L-prolyl)-2-pyrrolidinecarboxaldehyde oxime], the inhibition at 10 µM in test [1] came out at 0%; in test [2], 0%; in test [3] it was 0%; in test [4], 0%; in test [6] (setting [7]), 100%. In test [5] (1 × 10^-5 M), the “Inhibition rate, leucine aminopeptidase” value was found to be 0%. Further, 0.45 µM corresponded to half-maximal inhibition in test [6] (IC50).
Turning to `CC(=O)ON=C[C@@H]1CCCN1C(=O)[C@@H]1CCCN1C(=O)OCc1ccccc1` [Compound 15, (2S)-1-(N-Benzyloxycarbonyl-L-prolyl)-2-pyrrolidinecarboxaldehyde O-acetyloxime], the inhibition at 1 µM was found to be 0% in test [1]; 0% in test [2]; 0% in test [3]; 0% in test [4]; 100% in test [6] (setting [7]). Moreover, the “Inhibition rate, leucine aminopeptidase” value in test [5] (1 × 10^-6 M) is recorded as 0%. In test [6], this molecule yielded an IC50 of 0.0045 µM.
Consider `CC(=O)ON=C[C@@H]1CSCN1C(=O)[C@@H]1CCCN1C(=O)OCc1ccccc1` [Compound 16, (4R)-3-(N-Benzyloxycarbonyl-L-prolyl)-4-thiazolidinecarboxaldehyde O-acetyloxime], for which the IC50 in test [6] amounted to 0.1 µM.
Take `CC(=O)ON=C[C@@H]1CSCN1C(=O)[C@@H]1CSCN1C(=O)OCc1ccccc1` [Compound 17, (4R)-3-(N-Benzyloxycarbonyl-L-thioprolyl)-4-thiazolidinecarboxaldehyde O-acetyloxime]: in test [6], the IC50 is 0.31 µM.
In the case of `O=C([C@@H]1CCCN1C(=O)OCc1ccccc1)N1CCC[C@H]1C=NOCc1ccccc1` [Compound 18, (2S)-1-(N-Benzyloxycarbonyl-L-prolyl)-2-pyrrolidinecarboxaldehyde O-benzyloxime], the inhibition at 10 µM in test [1] is 0%; in test [2], 0%; in test [3], 0%; in test [4] it was 0%; in test [6] (setting [7]) it was 100%. The “Inhibition rate, leucine aminopeptidase” value in test [5] (1 × 10^-5 M) turned out to be 0%. The half-maximal inhibitory concentration (IC50) in test [6] was 0.04 µM.
In test [6], `N#C[C@@H]1CSCN1C(=O)[C@@H]1CSCN1C(=O)OCc1ccccc1` [Compound 20, (4R)-3-(N-Benzyloxycarbonyl-L-thioprolyl)-4-cyanothiazolidine] had a 50% inhibitory concentration (IC50) of 0.0032 µM.
In test [6], `CC(=O)ON=C[C@@H]1CSCN1C(=O)[C@@H]1CCCN1C(=O)CN1CCCC1=O` [Compound 23, (4R)-3-{N-[(2-Oxo-1-pyrrolidinyl)acetyl]-L-prolyl}-4-thiazolidinecarboxaldehyde O-acetyloxime] displayed an IC50 of 0.64 µM.
Consider `N#C[C@@H]1CSCN1C(=O)[C@@H]1CCCN1C(=O)CN1CCCC1=O` [Compound 24, (4R)-3-{N-[(2-Oxo-1-pyrrolidinyl)acetyl]-L-prolyl}-4-cyanothiazolidine], for which, in test [6], 0.034 µM corresponded to half-maximal inhibition (IC50).
